Read-outs that look alike come from different tables or passages of the source.
Tests used:
mock-infected MT4 cells = assay: General toxicity assay on mock-infected MT4 cells with CMV-EGFP reporter (CC50); assay type: cell-based
[1] = tested on: HIV-1 Strain B (M046I, I050V); assay: microbe, parasite or virus in culture; assay type: cell-based; settings: clinical isolate Strain B; read-out: B EC50
Description: (§1) MT4-LTR-EGFP cells were obtained by transfecting MT4 cells with a selectable construct encompassing the sequences coding for the HIV long terminal repeat (LTR) as a promoter for the expression of enhanced green fluorescent protein (EGFP) and subsequent selection of permanently transfected cells.
(§2) The antiviral activity on different HIV-1 strains, was determined in a cell-based virus replication assay. Here MT4-LTR-EGFP cells (150,000 cells/ml) are infected (multiplicity of infection [MOI] of 0.0025) in the presence or absence of different inhibitor concentrations. Two methodologies for read-out were used, either quantification of GFP-fluoresence on day 3 post-infection, or quantification of cell-viability using rezazurin (as described by Fields, R. D., and M. V. Lancaster (1993) Am. Biotechnol. Lab. 11:48-50) on day 4 post infection.
(§3) In the following Table, Strains A, B, and C are clinical isolates that include the following protease inhibitor resistance mutations in the protease domain (background mutations are not mentioned).

[2] = tested on: HIV-1 Strain C (G048G/V, V082A); assay: microbe, parasite or virus in culture; assay type: cell-based; settings: clinical isolate Strain C; read-out: C EC50
Description: as §1, §2, §3

[3] = tested on: HIV-1 Strain A (M046I, I084V); assay: microbe, parasite or virus in culture; assay type: cell-based; settings: clinical isolate Strain A; read-out: A EC50
Description: as §1, §2, §3

HIV-1 IIIB = assay: 50% HS-Rezazurin: antiviral assay in the presence of 50% human serum, MT-4 cells, resazurin cell viability; assay type: cell-based
Description: For the Antiviral assay in the presence of 50% human serum MT-4 cells were infected with HIV-1 IIIB at a MOI of 0.001 to 0.01 CCID50/cell in RPMI1640 medium. Following 1 h of incubation, cells were washed and plated into a 96-well plate containing serial dilutions of compound in the presence of 10% fetal calf serum (FCS), or 50% human serum. After 4 days incubation, the EC50 in the presence of 50% human serum was determined by a cell viability assay using resazurin.
The last column lists the results for the wild-type strain IIB in the presence of 50% human serum MT-4 cells.

HIV-1 wild-type strain = assay: General antiviral assay, cell-based virus replication in MT4-LTR-EGFP cells, wild-type strain; settings: wild-type strain IIIB, MT4-LTR-EGFP cells
Description: as §1, §2

[4] = MT4LTR cells, read-out: TOX-MT4LTR (CC50)
[5] = mock-infected MT4 cells with CMV-EGFP reporter, read-out: TOX-MT4CMV (CC50)

With `COC(=O)NC(C(=O)NC(Cc1ccc(-c2ccc(OC)nc2)cc1)C(O)CC(Cc1ccccc1F)C(=O)NC1CCCCC1O)C(C)(C)C` (stereo not drawn) [Compound 100] the CC50 (mock-infected MT4 cells; [4]) was > 32000 nM, the EC50 [1] was 0.7 nM and the EC50 [2] was 0.8 nM. For the same compound, the EC50 [3] was 1.8 nM, the EC50 (HIV-1 IIIB) was 5.9 nM and the EC50 (HIV-1 wild-type strain) was 1.8 nM.

`CN(C)c1ccc(-c2ccc(C[C@H](NC(=O)O[C@H]3CO[C@H]4OCC[C@H]43)[C@@H](O)C[C@@H](Cc3ccccc3F)C(=O)N[C@H]3c4cc(F)ccc4OC[C@H]3O)cc2)cn1` [Compound 68] was tested, and the CC50 (mock-infected MT4 cells; [5]) was > 32000 nM, the EC50 [1] was 1.5 nM and the EC50 [2] was 1.3 nM. It also gave an EC50 [3] of 2.2 nM, an EC50 (HIV-1 IIIB) of 9.4 nM and an EC50 (HIV-1 wild-type strain) of 3 nM.

`Cc1cc(-c2ccc(C[C@H](NC(=O)O[C@H]3CO[C@H]4OCC[C@H]43)[C@@H](O)C[C@@H](Cc3ccccc3F)C(=O)N[C@H]3c4cc(Cl)ccc4OC[C@H]3O)cc2)cc(C)n1` [Compound 76] was tested, and the CC50 (mock-infected MT4 cells; [4]) was > 32000 nM, the EC50 [1] was 1.5 nM and the EC50 [2] was 1.1 nM. For the same compound, the EC50 [3] was 1.7 nM, the EC50 (HIV-1 IIIB) was 20.5 nM and the EC50 (HIV-1 wild-type strain) was 2.9 nM.

For `COc1ccc(-c2ccc(C[C@H](NC(=O)O[C@H]3CO[C@H]4OCC[C@H]43)[C@@H](O)C[C@@H](Cc3cccc(OC(F)(F)F)c3)C(=O)N[C@H]3c4cc(Cl)ccc4OC[C@H]3O)cc2)cn1` [Compound 73], the CC50 (mock-infected MT4 cells; [4]) was > 32000 nM, the EC50 [1] was 4.1 nM and the EC50 [2] was 1.9 nM. The EC50 [3] was 3.7 nM, the EC50 (HIV-1 IIIB) was 9.2 nM and the EC50 (HIV-1 wild-type strain) was 3.3 nM.

`COC(=O)N[C@H](C(=O)N[C@@H](Cc1ccc(-c2cnc(OC(C)C)cn2)cc1)[C@@H](O)C[C@@H](Cc1cccc(F)c1)C(=O)N[C@H]1c2cc(Cl)ccc2OC[C@H]1O)C(C)(C)C` [Compound 46] showed a CC50 (mock-infected MT4 cells; [4]) of 10000 nM, an EC50 [1] of 5.6 nM and an EC50 [2] of 3.7 nM. The EC50 [3] was 9.4 nM, the EC50 (HIV-1 IIIB) was 34.6 nM and the EC50 (HIV-1 wild-type strain) was 5.3 nM.

In the case of `COC(=O)NC(C(=O)NC(Cc1ccc(-c2ccc(OC)nc2)cc1)C(O)CC(Cc1ccccc1F)C(=O)NC1C(C)CCC1O)C(C)(C)C` (stereo not drawn) [Compound 99], the CC50 (mock-infected MT4 cells; [4]) is reported as > 32000 nM, the EC50 [1] is reported as 0.6 nM and the EC50 [2] is reported as 0.9 nM. The EC50 [3] was 1.7 nM, the EC50 (HIV-1 IIIB) was 3.3 nM and the EC50 (HIV-1 wild-type strain) was 1.1 nM.

`COC(=O)NC(C(=O)NC(Cc1ccc(-c2cc(C)nc(C)c2)cc1)C(O)CC(Cc1ccccc1F)C(=O)NC1c2cc(Cl)ccc2OCC1O)C(C)(C)C` (stereo not drawn) [Compound 12] was tested, and the CC50 (mock-infected MT4 cells; [5]) was > 32000 nM, the EC50 [1] was 3 nM and the EC50 [2] was 2.2 nM. For the same compound, the EC50 [3] was 3.7 nM, the EC50 (HIV-1 IIIB) was 35.7 nM and the EC50 (HIV-1 wild-type strain) was 4 nM.

In the case of `COC(=O)N[C@H](C(=O)N[C@@H](Cc1ccc(-c2cnc(OC)nc2)cc1)[C@@H](O)C[C@@H](Cc1cccc(F)c1)C(=O)N[C@H]1c2cc(F)ccc2OC[C@H]1O)C(C)(C)C` [Compound 65], the CC50 (mock-infected MT4 cells; [4]) is reported as > 32000 nM, the EC50 [1] is reported as 3.6 nM and the EC50 [2] is reported as 2.3 nM. It also gave an EC50 [3] of 4.5 nM, an EC50 (HIV-1 IIIB) of 24.7 nM and an EC50 (HIV-1 wild-type strain) of 9.1 nM.

In the case of `COC(=O)N[C@H](C(=O)N[C@@H](Cc1ccc(-c2cnc(N(C)C)nc2)cc1)[C@@H](O)C[C@@H](Cc1ccccc1F)C(=O)N[C@H]1c2cc(Cl)ccc2OC[C@H]1O)C(C)(C)C` [Compound 43], the CC50 (mock-infected MT4 cells; [4]) is reported as > 32000 nM, the EC50 [1] is reported as 1 nM and the EC50 [2] is reported as 1.1 nM. The EC50 [3] was 1.7 nM, the EC50 (HIV-1 IIIB) was 10.6 nM and the EC50 (HIV-1 wild-type strain) was 2 nM.

For `COC(=O)N[C@H](C(=O)N[C@@H](Cc1ccc(-c2cncc(N(C)C)n2)cc1)[C@@H](O)C[C@@H](Cc1ccccc1F)C(=O)N[C@H]1c2cc(Cl)ccc2OC[C@H]1O)C(C)(C)C` [Compound 25], the CC50 (mock-infected MT4 cells; [5]) was > 32000 nM, the EC50 [1] was 2.7 nM and the EC50 [2] was 2.5 nM. It also gave an EC50 [3] of 4.6 nM, an EC50 (HIV-1 IIIB) of 26.4 nM and an EC50 (HIV-1 wild-type strain) of 4.9 nM.

With `COCCOC(=O)N[C@H](C(=O)N[C@@H](Cc1ccc(-c2ccc(OC)nc2)cc1)[C@@H](O)C[C@@H](Cc1ccccc1F)C(=O)N[C@H]1c2cc(Cl)ccc2OC[C@H]1O)C(C)(C)C` [Compound 55] the CC50 (mock-infected MT4 cells; [4]) was > 32000 nM, the EC50 [1] was 1.5 nM and the EC50 [2] was 1.2 nM. It also gave an EC50 [3] of 2.1 nM, an EC50 (HIV-1 IIIB) of 12.5 nM and an EC50 (HIV-1 wild-type strain) of 2.7 nM.

With `COc1ccc(-c2ccc(C[C@H](NC(=O)[C@@H](NC(=O)C3(C#N)CC3)C(C)(C)C)[C@@H](O)C[C@@H](Cc3ccccc3F)C(=O)N[C@H]3c4cc(Cl)ccc4OC[C@H]3O)cc2)cn1` [Compound 47] the CC50 (mock-infected MT4 cells; [4]) was > 32000 nM, the EC50 [1] was 6.8 nM and the EC50 [2] was 5.5 nM. It also gave an EC50 [3] of 11.1 nM, an EC50 (HIV-1 IIIB) of 10.4 nM and an EC50 (HIV-1 wild-type strain) of 3.2 nM.

With `COc1ccc(-c2ccc(C[C@H](NC(=O)O[C@H]3CO[C@H]4OCC[C@H]43)[C@@H](O)C[C@@H](Cc3ccccc3F)C(=O)N[C@H]3c4cc(Cl)ccc4OC[C@H]3O)cc2)cn1` [Compound 72] the CC50 (mock-infected MT4 cells; [4]) was > 32000 nM, the EC50 [1] was 0.8 nM and the EC50 [2] was 0.5 nM. The EC50 [3] was 0.8 nM, the EC50 (HIV-1 IIIB) was 5.8 nM and the EC50 (HIV-1 wild-type strain) was 1.5 nM.
